Structures can show the parent of a compound that is named as a salt. Where two headings read alike, the source gives them in different places.
Assay: Water solubility (statement)

CC(N)Cc1ccccc1 (racemic) [Amphetamine sulfate, racemic amphetamine sulfate]
solubility: freely soluble | solubility (listed as Racemic amphetamine sulfate): freely water soluble

Reference: US20180256515A1, “ORAL AMPHETAMINE COMPOSITION” (Adare Pharmaceuticals, Inc., priority 2017, published 2018)
